Data on one compound can be found in patent publication US20250049674A1, “COSMETIC OR DERMATOLOGICAL COMPOSITION COMPRISING AT LEAST A MEROCYANINE AND A HYDROTROPE” (L'OREAL, priority 2021, published 2025).

In brackets after ≈: the same amount, converted by molar mass.

A word on the solubility: it is how much of the substance goes into solution per volume. Read a low solubility as a poorly soluble substance.

The nature of the data set: Water solubility of merocyanine (C). Format: physicochemical. To be noted: at 20° C. From the text: It is therefore necessary to be able to formulate UV-screening agents of merocyanine type in an aqueous medium. In particular, for cosmetic quality and performance benefits, it is advantageous that this aqueous medium be a single-phase medium.

Consider `CCOCCOC(=O)/C(C#N)=C1\C=C(NCCCOC)CCC1` [Compound (C), 2-ethoxyethyl (2Z)-cyano{3-[(3-methoxypropyl)amino]cyclohex-2-en-1-ylidene}ethanoate], for which the solubility was approximately 0.5 mg/mL (≈ 1550 µM).
